From PubChem BioAssay AID179 (DTP/NCI, 2004)
Calls of active or inactive are those of the source.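 The calls were made as follows: active = compounds giving half or more protection of infected cells from virus-caused growth loss, again on retest; inactive = the rest.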 Where a SMILES comes first, the peptide text is derived from it. The star is where a group is joined. Cbz = O=C(OCc1ccccc1)*

Tested on: CEM cells HIV-1 protection, formazan growth assay
Test: NCI AIDS Antiviral Assay
Conditions: for IC50: measured here: growth of uninfected CEM cells
Procedure, shortened: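 Steps: treat uninfected and HIV-1-infected human CEM cells at five drug levels; quantify growth by soluble formazan; retest any compound reaching 50% protection; classify actives from the retest.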

Row | Compound | EC50 [µM] | IC50 [µM] | outcome
1 | COC(=O)C1(NC(=O)C(N)CC(=O)O)C(C)C1C (configuration not stated) | > 200 | > 200 | –
2 | CCC(C)C1(C2CCCC2)NC(=O)NC1=O (configuration not stated) | > 200 | > 200 | –
3 | O=C1O/C(=C(/Cl)c2cccc3ccccc23)c2ccccc21 | – | – | inactive
4 | Nc1nc(N)c2nnsc2n1 | > 200 | > 200 | –
5 | CCc1nc2ccc(N=NN(C)C)cc2[nH]1 | 85.1 | 107 | –
6 | O=[N+]([O-])c1ccccc1Nc1ccccc1[N+](=O)[O-] | > 52.5 | > 52.5 | –
7 | Cc1cc(C)nc(NS(=O)(=O)c2ccc(Nc3c4ccccc4nc4c(C(=O)Nc5ccc(S(=O)(=O)Nc6cc(C)on6)cc5)ccc(Cl)c34)cc2)n1 | > 46.8 | 41.7 | –
8 | CCCCCCCC1C(C)c2c([nH]c3ccccc23)C2C(=O)N(c3ccc(OC)cc3)C(=O)C21 (configuration not stated) | > 200 | 10.2 | –
9 | COC(=O)/C(=C\C(=O)c1ccc(Br)cc1)NN=C(c1ccccc1)c1ccccc1 | > 200 | > 200 | –
10 | COc1ccccc1NC(=O)C1=C(C)NC(C)=C(C(=O)Nc2ccccc2OC)C1c1ccco1 | – | – | inactive
11 | COC1=C(C)C2CC(=O)OC3CC4C(C)CC(O)C(=O)[C@]4(C)C(C1=O)[C@@]32C (some centres not stated) | – | – | inactive
12 | S=c1c2ccccc2c(=S)n2n1CC=CC2 | – | – | inactive
13 | CCOC(=O)/C(O)=C(/C=NC(=S)c1ccncc1)C(=O)OCC | > 200 | > 200 | –
14 | N.N.N.N.O=N[O-].O=N[O-].O=[N+]([O-])[O-].[Co+3] | > 200 | > 200 | –
15 | O=C1c2ccccc2-c2c1c(-c1ccccc1)c1n2C2(C(=O)c3ccccc3C2=O)C2C(=O)N(c3ccccc3)C(=O)C12 (configuration not stated) | > 200 | 120 | –
16 | Cc1cc(C)nc(NS(=O)(=O)c2ccc(NNc3c4ccccc4nc4c(C(=O)Nc5ccc(S(=O)(=O)Nc6cc(C)on6)cc5)cccc34)cc2)n1 | > 200 | 34.7 | –
17 | O=C(O)c1cc(-c2ccccc2)c(-c2ccccc2)cc1C(c1ccccc1)c1ccccc1 | > 200 | 28.2 | –
18 | Nc1nc(Cl)cc(NCC2(CO)CC(OCc3ccccc3)C2)n1 (configuration not stated) | > 200 | 6.03 | –
19 | COc1ccc(C(=O)c2ccc(OC)c3ccccc23)c2ccccc12 | > 200 | 1.51 | –
20 | CCC12CCCN(Cc3ccccc3)C1c1c(n(C)c3ccccc13)C(C(=O)O)C2 (configuration not stated) | > 7.76 | > 7.76 | –
21 | CCOC(=O)CCC(NC(=O)C(CC(=O)OC)NC(=O)C(CC(=O)OC)NC(=O)C(CC(=O)OC)NC(=O)C(CC(=O)OC)NC(=O)OCc1ccccc1)C(=O)NC(CCC(=O)OCC)C(=O)NC(CCC(=O)OCC)C(=O)OCC (configuration not stated) (Cbz-D(OMe)D(OMe)D(OMe)D(OMe)E(OEt)E(OEt)E(OEt)-OEt; configuration not given here) | > 50.1 | > 50.1 | –
22 | COc1ccc(-c2cc(=O)c3ccccc3o2)c(OC)c1OC | > 200 | 31.6 | –

Row | Compound | EC50 [µM] | IC50 [µM] | outcome
23 | C1=C(C2CCCC3[C@@H]4C[C@@H](CN23)C2CCCCN2C4)CCC2[C@H]3C[C@H](CN12)C1CCCCN1C3 (some centres not stated) | > 21.4 | > 21.4 | –
24 | CC1NS(=O)(=O)N(C)C1=O (configuration not stated) | – | – | inactive
25 | C=C(C)C1CCC2(C(=O)O)CCC3(C)C(CCC4C5(C)CCC(O)C(C)(C)C5CCC43C)C12 (configuration not stated) | > 200 | 66.1 | –
26 | CC1C=CC(O)[C@]2(CO)CC3(CCC12)OCCO3 (some centres not stated) | – | – | inactive
27 | CCSc1c2ccccc2c(-c2nc(F)nc(F)n2)n1CCc1ccccc1 | > 13.2 | > 13.2 | –
28 | COc1cc(C2C(C#N)=C(N)OC3=C2CCS(=O)(=O)c2ccc(C)cc23)cc(OC)c1OC (configuration not stated) | > 200 | > 200 | –
29 | COc1ccc(CCc2nccn2C)cc1OC | > 200 | > 200 | –
30 | S=C(N/N=C\c1ccccn1)N/N=C\c1ccccn1 | > 2 | 0.813 | –
31 | CCCCCCCC1(N=[N+]=[N-])C(=O)c2ccccc2N(C)C1=O (configuration not stated) | 21.9 | 110 | –
32 | Cc1cc(NS(=O)(=O)c2ccc(N=Nc3c(Nc4ccccc4)nn(-c4ccc(S(=O)(=O)Nc5ccncn5)cc4)c3C)cc2)no1 | > 200 | > 200 | –
33 | CC1(C)CCCC(C)(C)N1[P-]C(=O)[P-]N1C(C)(C)CCCC1(C)C.[C-]#[O+].[C-]#[O+].[C-]#[O+].[C-]#[O+].[C-]#[O+].[C-]#[O+].[Fe].[Fe] (configuration not stated) | > 2.24 | > 2.24 | –
34 | CCOC(=O)CC1=Nc2ccccc2SC1 | – | – | inactive
35 | CCOC(=O)NC(S(=O)(=O)O)S(=O)(=O)O | > 200 | > 200 | –
36 | CCOC(=O)c1sc2c(c1OC(=O)c1ccco1)c(=O)n(-c1ccccc1)c(=S)n2-c1ccccc1 | > 200 | 8.32 | –
37 | CCNCCNC(=O)c1ccc(I)cc1 | – | – | inactive
38 | C1#CCSCC#CCSC1 | > 42.7 | > 42.7 | –
39 | CCN1CCC(O)(c2ccc(Oc3ccc(C)cc3)cc2)C(C(=O)c2ccc(Oc3ccc(C)cc3)cc2)C1 (configuration not stated) | > 200 | 3.8 | –
40 | N#Cc1cn(-c2c3ccccc3nc3ccccc23)c(=O)[nH]c1=O | > 214 | 0.288 | –
41 | CC1(C)C(N2CCOCC2)CS1(=O)=O (configuration not stated) | > 200 | > 200 | –
42 | O=c1nc(/C=C/c2ccccc2Cl)cc2n1CCN2CCO | – | – | inactive
43 | CC1(C)CCC(C)(C)C1C(=O)NC(O)C(=O)O (configuration not stated) | > 200 | > 200 | –
